Laboratory results from patent publication US8912184B1, “Therapeutic and diagnostic methods” (Alzheimer's Institute of America, Inc., priority 2010, dated 2014).
Like-named read-outs stand apart in the source and are kept apart here.

Test system: HCT116 cells
Experiment: Nicotinic Acid Rescue Cytotoxicity Assay, first method: cytotoxicity to HCT116 cells in presence and absence of 10 μM nicotinic acid
Assay type: cell-based
Details: Homo sapiens, HCT-116, 72 h
Procedure: Additionally, Nicotinic Acid (NA) rescue of cytotoxicity of Nampt inhibitors was assessed by two distinct methods. In the first method, Nampt1 inhibitor cytotoxicity was evaluated in the presence and absence of exogenous nicotinic acid (NA) at a fixed concentration. […] Twenty four hours after cells were plated, the media was removed and replaced with media containing 10 μM nicotinic acid. Compounds were then immediately added. Cell viability was then assessed at 72 h.
Using the first of the two assays described above, the 90 compounds shown in Table 5, below, were tested for cytotoxicity towards Naprt1-proficient HCT116 cells, and for the ability of NA to block the observed cytotoxicity (or “rescue” the cells from the cytotoxic activity of the tested compound). The compounds listed are referred to by a unique rescue analysis example number (i.e., R1, R2 . . . R90) that is used as a reference number in Table 4, in which the results of the cytotoxicity and rescue assays are presented.

[1] = absence of nicotinic acid, read-out: HCT116 72 h cytotoxicity
[2] = presence of 10 μM nicotinic acid, read-out: HCT116 72 h cytotoxicity with 10 μM Nicotinic Acid

Compound | IC50 [1] | IC50 [2]
C#CCN(Cc1cc2c(=O)n(C)c(CN3CCN(C)CC3)nc2cc1Cl)c1ccc(C(=O)NCc2cccnc2)cc1 [Example R1] | 0.0007 µM | > 10 µM
C#CCN(Cc1cc2c(=O)n(C)c(CN3CCN(CCN)CC3)nc2cc1Cl)c1ccc(C(=O)NCc2cccnc2)cc1 [Example R2, 4-{[(2-{[4-(2-Aminoethyl)piperazin-1-yl]methyl}-7-chloro-3-methyl-4-oxo-3,4-dihydroquinazolin-6-yl)methyl](prop-2-yn-1-yl)amino}-N-(pyridin-3-ylmethyl)benzamide] | 0.0183 µM | > 50 µM
O=C(/C=C/c1cccnc1)NCCCCC1CCN(C(=O)c2ccccc2)CC1 [Example R3, (2E)-N-[4-(1-Benzoylpiperidin-4-yl)butyl]-3-(pyridin-3-yl)prop-2-enamide] | 0.0014 µM | > 10 µM
C#CCN(Cc1cc2c(=O)n(C)c(CN3CCN(C)CC3)nc2cc1Cl)c1ccc(C(=O)NCc2ccccn2)cc1 [Example R4, 4-[({7-Chloro-3-methyl-2-[(4-methylpiperazin-1-yl)methyl]-4-oxo-3,4-dihydroquinazolin-6-yl}methyl)(prop-2-yn-1-yl)amino]-N-(pyridin-2-ylmethyl)benzamide] | 0.276 µM | > 10 µM
N#C/N=C(/NCCCCCCOc1ccc(Cl)cc1)Nc1ccncc1 [Example R5, 1-[6-(4-Chlorophenoxy)hexyl]-2-cyano-3-pyridin-4-ylguanidine] | 0.0016 µM | > 10 µM
O=C(NCc1cccnc1)c1ccc(NC(=O)c2ccccc2)cc1 [Example R6, 4-[(Phenylcarbonyl)amino]-N-(pyridin-3-ylmethyl)benzamide] | 1.69 µM | > 10 µM
O=C(NCc1cccnc1)c1ccc(NNc2ccc(C(=O)NCc3cccnc3)cc2)cc1 [Example R7, 4,4′-Hydrazine-1,2-diylbis[N-(pyridin-3-ylmethyl)benzamide]] | 0.0088 µM | 22 µM
O=C(NCc1cccnc1)c1ccc(NCc2ccccc2OC(F)(F)F)cc1 [Example R8, N-(Pyridin-3-ylmethyl)-4-{[2-(trifluoromethoxy)benzyl]amino}benzamide] | 3.13 µM | > 10 µM
C#CCN(Cc1ccccc1-c1ccccc1)c1ccc(C(=O)NCc2cccnc2)cc1 [Example R9, 4-[(Biphenyl-2-ylmethyl)(prop-2-yn-1-yl)amino]-N-(pyridin-3-ylmethyl)benzamide] | 0.0415 µM | 12 µM
C#CCN(Cc1ccccc1C(F)(F)F)c1ccc(C(=O)NCc2cccnc2)cc1 [Example R10, 4-{Prop-2-yn-1-yl[2-(trifluoromethyl)benzyl]amino}-N-(pyridin-3-ylmethyl)benzamide] | 1.11 µM | > 5 µM
O=C(Nc1ccc(C(=O)NCc2cccnc2)cc1)Nc1ccccc1-c1ccccc1 [Example R11, 4-[(Biphenyl-2-ylcarbamoyl)amino]-N-(pyridin-3-ylmethyl)benzamide] | 0.424 µM | > 50 µM
O=C(Nc1ccc(C(=O)NCc2cccnc2)cc1)Nc1ccc(Cl)c(Cl)c1 [Example R12, 4-{[(3,4-Dichlorophenyl)carbamoyl]amino}-N-(pyridin-3-ylmethyl)benzamide] | 9.64 µM | 24.8 µM
O=C(NCc1cccnc1)c1ccc(NC(=S)Nc2ccccc2Br)cc1 [Example R13, 4-{[(2-Bromophenyl)carbamothioyl]amino}-N-(pyridin-3-ylmethyl)benzamide] | 1.61 µM | > 50 µM
O=C(Nc1ccc(C(=O)NCc2cccnc2)cc1)Nc1cc(C(F)(F)F)cc(C(F)(F)F)c1 [Example R14, 4-({[3,5-Bis(trifluoromethyl)phenyl]carbamoyl}amino)-N-(pyridin-3-ylmethyl)benzamide] | 7.39 µM | 21.5 µM
O=C(NCc1cccnc1)c1ccc(NC(=S)Nc2cccc(OCc3ccccc3)c2)cc1 [Example R15, 4-({[3-(Benzyloxy)phenyl]carbamothioyl}amino)-N-(pyridin-3-ylmethyl)benzamide] | 4.69 µM | > 50 µM
O=C(CN1CCc2ccccc21)Nc1ccc(C(=O)NCc2cccnc2)cc1 [Example R16, 4-[(2,3-Dihydro-1H-indol-1-ylacetyl)amino]-N-(pyridin-3-ylmethyl)benzamide] | 3.29 µM | > 50 µM
O=C(CN1CCCc2ccccc21)Nc1ccc(C(=O)NCc2cccnc2)cc1 [Example R17, 4-[(3,4-Dihydroquinolin-1(2H)-ylacetyl)amino]-N-(pyridin-3-ylmethyl)benzamide] | 2.05 µM | > 50 µM
O=C(CNCc1ccccc1Br)Nc1ccc(C(=O)NCc2cccnc2)cc1 [Example R18, 4-{[N-(2-Bromobenzyl)glycyl]amino}-N-(pyridin-3-ylmethyl)benzamide] | 6.81 µM | > 50 µM
O=C(CNc1ccccc1Oc1ccccc1)Nc1ccc(C(=O)NCc2cccnc2)cc1 [Example R19, 4-{[N-(2-Phenoxyphenyl)glycyl]amino}-N-(pyridin-3-ylmethyl)benzamide] | 0.586 µM | > 50 µM
Cc1ccccc1NCC(=O)Nc1ccc(C(=O)NCc2cccnc2)cc1 [Example R20, 4-{[N-(2-Methylphenyl)glycyl]amino}-N-(pyridin-3-ylmethyl)benzamide] | 0.106 µM | > 50 µM
CCOc1ccccc1NCC(=O)Nc1ccc(C(=O)NCc2cccnc2)cc1 [Example R21, 4-{[N-(2-Ethoxyphenyl)glycyl]amino}-N-(pyridin-3-ylmethyl)benzamide] | 0.435 µM | > 50 µM
CC(C)c1ccccc1NCC(=O)Nc1ccc(C(=O)NCc2cccnc2)cc1 [Example R22] | 0.302 µM | > 50 µM
O=C(NCc1cccnc1)c1ccc(OCc2ccccc2-c2ccccc2)cc1 [Example R23, 4-(Biphenyl-2-ylmethoxy)-N-(pyridin-3-ylmethyl)benzamide] | 0.539 µM | > 50 µM
Cc1c(COc2ccc(C(=O)NCc3cccnc3)cc2)cccc1C(F)(F)F [Example R24, 4-{[2-Methyl-3-(trifluoromethyl)benzyl]oxy}-N-(pyridin-3-ylmethyl)benzamide] | 12 µM | 45 µM
CC(C)c1cccc(-c2ccccc2CNc2ccc(C(=O)NCc3cccnc3)cc2)c1 [Example R25, 4-({[3′-(Propan-2-yl)biphenyl-2-yl]methyl}amino)-N-(pyridin-3-ylmethyl)benzamide] | 8.33 µM | 37 µM
CC(=O)Nc1cccc(-c2ccccc2CNc2ccc(C(=O)NCc3cccnc3)cc2)c1 [Example R26, 4-({[3′-(Acetylamino)biphenyl-2-yl]methyl}amino)-N-(pyridin-3-ylmethyl)benzamide] | 0.0269 µM | 25 µM
O=C(NCc1cccnc1)c1ccc(NCc2ccccc2-c2ccccc2)cc1 [Example R27, 4-[(Biphenyl-2-ylmethyl)amino]-N-(pyridin-3-ylmethyl)benzamide] | 0.0871 µM | 37 µM
Cc1ccccc1-c1ccccc1CNc1ccc(C(=O)NCc2cccnc2)cc1 [Example R28, 4-{[(2′-Methylbiphenyl-2-yl)methyl]amino}-N-(pyridin-3-ylmethyl)benzamide] | 0.335 µM | 25 µM
O=C(NCc1cccnc1)c1ccc(NCc2ccccc2-c2cccc(C(F)(F)F)c2)cc1 [Example R29, N-(Pyridin-3-ylmethyl)-4-({[3′-(trifluoromethyl)biphenyl-2-yl]methyl}amino)benzamide] | 10.3 µM | 25 µM
